Earlier results as cited in paper PMC6225228, “Design, Synthesis and Evaluation of N-pyrazinylbenzamides as Potential Antimycobacterial Agents” (Molecules : A Journal of Synthetic Chemistry and Natural …, 2018).
Read-outs that look alike come from different tables or passages of the source. Marks after values point to notes of the source that are not given here.

Experiments:
[1] = tested on: Mycobacterium tuberculosis H37Rv (Mtb); conditions: Šula's semisynthetic medium, cited from earlier work; for Amides MIC (value in parentheses): second value in parentheses
[2] = tested on: Mycobacterium tuberculosis H37Rv (Mtb); conditions: cited from earlier work
[3] = pH = 5.6, turbidity, first value

O=C(Nc1cccc(C(F)(F)F)c1)c1cnc(Cl)cn1 [Amide R1=5-Cl R2=3-CF3]
Amides MIC [1, 3]: 3.13 µg/mL | Amides MIC (value in parentheses) ([1]; pH = 5.6, turbidity): 6.25 µg/mL

O=C(Nc1cccc(Cl)c1)c1cnc(Cl)cn1 [Amide R1=5-Cl R2=3-Cl]
Amides MIC [1, 3]: 6.25 µg/mL | Amides MIC (value in parentheses) ([1]; pH = 5.6, turbidity): 3.13 µg/mL

O=C(Nc1cccc(O)c1)c1cnc(Cl)cn1 [Amide R1=5-Cl R2=3-OH]
Amides MIC [1, 3]: 6.25 ^c [18] μg/mL

O=C(Nc1ccc(Br)cc1)c1cnc(Cl)cn1 [Amide R1=5-Cl R2=4-Br]
Amides MIC [1, 3]: 3.13 ^c [18] μg/mL

O=C(Nc1ccc(O)cc1)c1cnc(Cl)cn1 [Amide R1=5-Cl R2=4-OH]
Amides MIC [1, 3]: 3.13 µg/mL | Amides MIC (value in parentheses) ([1]; pH = 5.6, turbidity): 12.5 µg/mL

O=C(Nc1ccccc1Cl)c1cncc(Cl)n1 [Amide R1=6-Cl R2=2-Cl]
Amides MIC ([1]; pH = 5.6, MABA): 100 ^d [34] μg/mL

COc1ccccc1NC(=O)c1cncc(Cl)n1 [Amide R1=6-Cl R2=2-OCH3]
Amides Inhibition (%) at 6.25 μg/mL (TAACF) [2]: 6 [35] %

O=C(Nc1cccc(C(F)(F)F)c1)c1cncc(Cl)n1 [Amide R1=6-Cl R2=3-CF3]
Amides Inhibition (%) at 6.25 μg/mL (TAACF) [2]: 77 [32] %

O=C(Nc1cccc(Cl)c1)c1cncc(Cl)n1 [Amide R1=6-Cl R2=3-Cl]
Amides Inhibition (%) at 6.25 μg/mL (TAACF) [2]: 14 [33] %

COc1cccc(NC(=O)c2cncc(Cl)n2)c1 [Amide R1=6-Cl R2=3-OCH3]
Amides Inhibition (%) at 6.25 μg/mL (TAACF) [2]: 2 [31] %

Cc1ccc(NC(=O)c2cncc(Cl)n2)cc1 [Amide R1=6-Cl R2=4-CH3]
Amides Inhibition (%) at 6.25 μg/mL (TAACF) [2]: 71 [32] %

O=C(Nc1ccc(Cl)cc1)c1cncc(Cl)n1 [Amide R1=6-Cl R2=4-Cl]
Amides Inhibition (%) at 6.25 μg/mL (TAACF) [2]: 65 [33] %
